From publication PMC7940618, “Specific inhibition of the Survivin–CRM1 interaction by peptide-modified molecular tweezers” (Nature Communications, 2021) come the findings set out here.

In experiment [1] the target is T1, Survivin120/CRM1_1-1062VLV430AAA complex (Homo sapiens, UniProt O15392).
T1 construct: the only published NMR structure originated from a truncated Survivin (aa 1-120) with improved solubility; GST with PreScission site (N); made in house; host or cells: E. coli BL21-CodonPlus-RIL (CRM1 mutant); E. coli soluBL21 (Survivin120)
As to the kind of experiment: Fluorescence anisotropy titration of Atto488-Survivin120/CRM1 complex with tweezers. Format: binding. Particulars: for Anisotropy: Data 1; for IC50: fluorescence anisotropy, Atto488-Survivin120:CRM1 mutant 1:5, n = 1, read-out: IC50, disruption of Survivin–CRM1 complex. The procedure:
We also used fluorescence anisotropy experiments to investigate the ability of the tweezer molecules to disrupt the Survivin–CRM1 complex. Atto488-labeled Survivin120 was preincubated with the CRM1_1-1062VLV430AAA mutant[40] that binds Survivin irrespective of RanGTP and titrated with tweezers.
Fluorescence anisotropy was measured with a Jasco Spectrofluorometer FP-8300 in PBS buffer, pH 7.4, at 25 °C and data were collected with the software Spectra Manager™.
For the quantitative analysis of the Survivin120/CRM1 complex, Survivin120 was labeled with ATTO488-maleimide from Jenabioscience according to the manufacturer’s instructions and mixed with CRM1_1-1062VLV430AAA in a ratio of 1:5. The protein complex was then titrated with tweezers in several steps until a final concentration of approximately 180 μM tweezers was reached. Data were transformed to logarithmic scale and IC50 was fitted using the equation in GraphPad Prism 8:2 y=Amin+Amax−Amin/1+10^x−logIC50 where Amax is the anisotropy in the absence of tweezer, Amin is the anisotropy at the end titration, and x is the concentration of tweezer. Amax was constrained for each data set, whereas Amin and IC50 were fitted.

Experiment [2] addresses T2, Survivin120 K90/103T (Homo sapiens, UniProt O15392, K103T/K90T).
T2 construct: the only published NMR structure originated from a truncated Survivin (aa 1-120) with improved solubility; GST with PreScission site (N); made in house; host or cells: Escherichia coli soluBL21
As to the kind of experiment: ITC titration of tweezers with Survivin120 K90/103T mutant. The class given is binding. The text has this: If the tweezer-based inhibitors indeed bind to lysines/arginines flanking the NES (K90, K91, K103, R106), their mutation to, e.g., threonine, should abolish the observed effects. For this reason, we generated double and triple Survivin120 mutants lacking these putative tweezer anchor points. Unfortunately, most double mutants and especially the triple mutants were unfolded as evidenced by 1D ^1H NMR (SI6); finally, the correctly folded double threonine mutant Survivin120 K90/103T was chosen for further investigation. […] Next, binding of FAM-labeled tweezers (SI3) to either Survivin120 wildtype or the K90/103T mutant was studied by fluorescence anisotropy (Fig. 7d–f). […] We conclude that lysines 90 and 103 are indeed essential for efficient tweezer binding.
ITC was performed with a MicroCal iTC200 from Malvern Panalytical in PBS, pH 7.4 at 25 °C with molecular tweezers in the cell and Survivin120 in the titration syringe. The protein was dialyzed overnight at 4 °C against the PBS buffer. Ligands were dissolved in the respective dialysis buffer. Then, 300 µM TW were titrated with 300 µM Survivin120 WT or 321 µM Survivin120 K90/103T. Then, 100 µM TW-ELTL, TW-ELTLGEFL, or TW-LFEEGLLT was titrated with 1.2 mM Survivin120 WT or 2.5 mM Survivin120 K90/103T. For reverse titrations, either 33.3 or 34.4 µM Survivin120 in the cell was titrated with 5 mM TW or TW-ELTL in the syringe, respectively. All titrations were performed in PBS, pH 7.4 at 25 °C. Then, 1.5 μL injections were used with 120 s spacing time between injections. The injection rate was set to 0.5 µL/s and the reference power was 5 µcal/s. ITC thermograms were fitted to a one set of sites model with the software Origin (v7.0552) provided with the instrument. Heat of dilution was subtracted as constant from each data point.
ITC thermograms were fitted to a one set of sites model with the software Origin provided with the instrument. Heat of dilution was subtracted as constant from each data point. From three independent experiments (n = 3), one representative example was depicted, and thermodynamic data were derived thereof. For pull-down experiments, only the representative quantification of the depicted western blot is shown. […] Fluorescence anisotropy graphs were generated with GraphPad Prism 5.0. Depicted error bars represent the standard deviation of three independent titrations.

Setting [3] is: Concentration of Tweezer 8.26446.
Setting [4] is: Concentration of Tweezer 16.39344.
[5] abbreviates: Concentration of Tweezer 24.39024.
Where [6] appears, read: Concentration of Tweezer 32.25806.
[7] abbreviates: Concentration of Tweezer 40.00000.
Where [8] appears, read: Concentration of Tweezer 55.11811.
[9] abbreviates: Concentration of Tweezer 83.96947.
Setting [10] is: Concentration of Tweezer 136.69060.
Where [11] appears, read: Concentration of Tweezer 183.67350.

Structures are written as SMILES. Values joined by “and” are separate entries in the source; they are usually repeats but may differ in a detail not shown here. Equal values may be shown once. Read-outs that look alike come from different tables or passages of the source. Peptide text beside a SMILES is read from it.

T2 sequence (O15392 1-120 K90T/K103T): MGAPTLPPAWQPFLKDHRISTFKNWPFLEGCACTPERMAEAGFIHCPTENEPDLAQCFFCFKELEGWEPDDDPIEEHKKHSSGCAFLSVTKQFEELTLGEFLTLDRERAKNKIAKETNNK
T1 sequence (O15392 1-120, one chain of several): as the sequence (O15392 1-120 K90T/K103T) above, with T90K, T103K counted along it

In the case of `O=P(O)(O)Oc1c2c(c(OP(=O)(O)O)c3c1C1CC3c3cc4c(cc31)C1CC4c3ccccc31)C1CC2c2cc3c(cc21)C1CC3c2ccccc21` [TW, reference compound], the Anisotropy in experiment [1] (setting [3]) is 0.0578; in experiment [1] (setting [4]) it was 0.0573; in experiment [1] (setting [5]) it was 0.0568; in experiment [1] (setting [6]), 0.0561; in experiment [1] (setting [7]), 0.0556; in experiment [1] (setting [8]), 0.0551. Besides, the Anisotropy is given as 0.0525 in experiment [1] (setting [9]), 0.0507 in experiment [1] (setting [10]), 0.0512 in experiment [1] (setting [11]) and 0.0517 in experiment [1] (Concentration of Tweezer 225.80650). Further, the IC50 in experiment [1] was 53 µM and 53.4 µM. This compound returned a ΔH in experiment [2] (ITC, Survivin120 K90/103T) of -0.6 kcal. The dissociation constant (Kd) in experiment [2] (ITC, Survivin120 K90/103T, PBS pH 7.4, 25 °C, one set of sites model, read-out: KD) is 49 ± 5 µM.
For `CC(C)C[C@H](NC(=O)[C@H](Cc1ccccc1)NC(=O)[C@H](CCC(=O)O)NC(=O)CNC(=O)[C@H](CC(C)C)NC(=O)[C@@H](NC(=O)[C@H](CC(C)C)NC(=O)[C@H](CCC(=O)O)NC(=O)Cn1cc(CCOP(=O)(O)Oc2c3c(c(OP(=O)(O)O)c4c2C2CC4c4cc5c(cc42)C2CC5c4ccccc42)C2CC3c3cc4c(cc32)C2CC4c3ccccc32)nn1)[C@@H](C)O)C(=O)O` [TW-ELTLGEFL] (HELM PEPTIDE1{[O=C(Cn1cc(CCOP(=O)(O)Oc2c3c(c(OP(=O)(O)O)c4c2C2CC4c4cc5c(cc42)C2CC5c4ccccc42)C2CC3c3cc4c(cc32)C2CC4c3ccccc32)nn1)[*:2]].E.L.T.L.G.E.F.L}$$$$V2.0), the IC50 in experiment [1] is 12 µM and 11.6 µM. The compound further showed a Kd in experiment [2] of 36 ± 10 µM.
Consider `CC(C)C[C@H](NC(=O)[C@@H](NC(=O)[C@H](CC(C)C)NC(=O)[C@H](CCC(=O)O)NC(=O)Cn1cc(CCOP(=O)(O)Oc2c3c(c(OP(=O)(O)O)c4c2[C@H]2C[C@@H]4c4cc5c(cc42)[C@H]2C[C@@H]5c4ccccc42)[C@H]2C[C@@H]3c3cc4c(cc32)[C@H]2C[C@@H]4c3ccccc32)nn1)[C@@H](C)O)C(=O)O` [TW-ELTL], for which the Anisotropy in experiment [1] (setting [3]) came to 0.0572; in experiment [1] (setting [4]), 0.0560; in experiment [1] (setting [5]), 0.0559; in experiment [1] (setting [6]), 0.0551; in experiment [1] (setting [7]) it was 0.0548; in experiment [1] (setting [8]), 0.0528. In addition, the Anisotropy in experiment [1] (setting [9]) amounted to 0.0510; in experiment [1] (setting [10]), 0.0501; in experiment [1] (setting [11]), 0.0506. Further, in experiment [1], the IC50 stood at 39 µM. Moreover, binding in experiment [2] was put at a Kd of 50 ± 10 µM. The ΔH in experiment [2] (ITC, Survivin120 K90/103T) is reported as -1.3 kcal.

What is called IC50 is the concentration that gives 50% inhibition. As usually defined, the Kd is the equilibrium constant for the complex coming apart.
